In patent US20250319206A1, “CRISPR/CAS GENE EDITING OF NEH4 AND/OR NEH5 DOMAINS IN NRF2” (Christina Care Gene Editing Institute, Inc., priority 2024, published 2025):

How the values were obtained:
Type in all cases: cell-based, Human
[1] = system: NRF2 downstream target genes (NQO1, HMOX1, GCLC); experiment: qPCR gene expression analysis of NRF2 and downstream targets in KYSE-410 cells; conditions: for NQO1 expression (qPCR): vs wildtype unedited cells, without cisplatin exposure
Experimental: Total RNA was isolated from edited cells using TRIzol reagent and PureLink RNA Mini Kit (Thermo Fisher Scientific, Waltham, MA). Reverse transcription was conducted using the Applied Biosystems High-Capacity RNA-to-cDNA kit (Thermo Fisher Scientific, Waltham, MA). The cDNA was used as the template in the qPCR amplification of GAPDH (Fwd 5′ […]3′ (SEQ ID NO:76), Rev 5′[…]3′ (SEQ ID NO:77)), NRF2 (Fwd 5′[…]3′ (SEQ ID NO:78), Rev 5′[…]3′ (SEQ ID NO:79)), NQO1 (Fwd 5′[…]3′ (SEQ ID NO:80), Rev 5′[…]3′ (SEQ ID NO:81)), HMOX1 (Fwd 5′ […]3′ (SEQ ID NO:82), Rev 5′[…]3′ (SEQ ID NO:83)) and GCLC (Fwd 5′[…]3′ (SEQ ID NO:84), Rev 5′ […]3′ (SEQ ID NO:85)) transcripts using the SsoAdvanced universal SYBR Green Supermix (BioRad, Hercules, CA). The experiment was conducted at least twice with all samples run in duplicate at minimum. Relative expression levels of mRNA were calculated using the Livak method and normalized to the control. The data was plotted with the coefficient of variance.
For all gene editing studies from bench to bedside, it is important to employ a functional assay, accompanied by an internal functional control, to assess the efficiency of CRISPR/Cas activity. In this case, NRF2 is a transcription factor that controls the expression of over 200 genes. Thus, NRF2 disruption can be measured functionally through qPCR analysis of NQO1 expression, a keystone gene controlled by NRF2. NQO1 has been used as a standard measure of NRF2 activity in cancer cells^40. We also use downstream targets HMOX1 and GCLC, two major antioxidant enzymes, to assess NRF2 function.

Panc-1 cells = experiment: Cell viability with gemcitabine, CellTiter-Glo 2.0, Panc-1 cells; conditions: Panc-1 cells, in the absence of gemcitabine
Experimental: Wildtype and transfected Panc-1 cells were plated to 24 well plates (n=5) at 50,000 cells per well and placed in incubator for 24 hours. The cells were then treated with either Gemcitabine (Selleckchem, Cat. S1714) or DMSO (Thermo Fisher, Cat. D12345). Cells treated with Gemcitabine were treated at one of the following concentrations: 0 μM, 2.5 μM, 5 μM, 25 μM while cells treated with DMSO were treated at: 0%, 0.025%, 0.05%, or 0.25%. Cells remained in Gemcitabine or DMSO for 72 hours before being evaluated using CellTiter-Glo 2.0 Cell Viability Assay (Promega, Cat. G9241).
Since our long-term objective is to develop an effective genetic treatment that would augment standard care, we decided to examine the possibility that we could restore sensitivity to gemcitabine by genetic editing of NRF2 in gemcitabine resistant Panc1 cells. We are using gemcitabine as a selection system to determine if gene editing at some level, can help restore tumor cell killing. We established the kill curve of Panc1 unedited cells by gemcitabine under our standard reaction conditions to serve as a baseline. […] Again, after 72 hours, each cell population was exposed to gemcitabine for an additional 72 hours and thereafter cell viability of the treated and untreated cells was measured using the Cell Titer 2.0 viability assay (Promega, Madison, WI, USA). […]

NRF2 = NRF2 western blot in Panc-1 cells; conditions: edited Panc-1 populations vs unedited, GAPDH loading control
Experimental: Panc-1 cell pellets were collected using a standard RIPA lysis buffer containing protease inhibitor cocktail. Total protein concentration of collected cells was then determined using BCA Protein Assay kit (Pierce, Rockford, IL, USA). The samples were boiled at 95° C. for 10 minutes and then underwent SDS-PAGE on a 10% Mini-PROTEAN TGX Stain-free Protein Gel (BioRad, Cat. 4568033) for 90 min at 100 V. The gel was then transferred to a nitrocellulose membrane using Trans-Blot Turbo Transfer Systems (BioRad, Hercules, CA, USA) with Trans-Blot Turbo RTA Mini 0.2 μm Nitrocellulose Transfer Kit (BioRad Cat. 1704158), mixed molecular weight program, 10 minutes. The blot was placed in 5% milk and blocked at room temperature on shaker for 2 hours. Incubation in primary NRF2 antibody was done overnight at 4° C. on shaker (1:1,000, Abcam ab62352). Membrane was then incubated at room temperature on shaker for 1 hour in NRF2 secondary (1:10,000, Abcam ab205718). The SuperSignal West Dura Extended Duration ECL (Pierce) kit was used on the LI-COR Odyssey FC to visualize bands. […]

| Substance | NQO1 expression (qPCR) [1] | NQO1 and GCLC expression ([1]; vs exon 2 (sg3) or exon 4 (sg76) targeted cells) | cell killing (Panc-1 cells) | NRF2 protein knock down (NRF2) |
| --- | --- | --- | --- | --- |
| sg76: gRNA targeting exon 4 of NRF2; TCACTTGTTCCTGATATTCC CGG (guide TCACTTGTTCCTGATATTCCCGG; listed as DNA, chemistry not given here) | significantly decreased | – | – | – |
| sg83: gRNA targeting exon 4 of NRF2; GTAGCCCCTGTTGATTTAGA CGG (guide GTAGCCCCTGTTGATTTAGACGG; listed as DNA, chemistry not given here) | significantly decreased | lower levels of NQO1 and GCLC expression | approximately 40% | significant knockdown of protein |
